Entries after “also recorded” stand apart in the source; their conditions may differ.
Test system: not listed separately
Experiment: Midpoint potential E1/2 by voltammetry vs Ag/AgCl (3M KCl)
Type: physicochemical
Settings: pH 7; Example 15 table
Experimental: The purified redox-active molecule can be dissolved in aqueous solution at appropriate concentration in the presence of supporting electrolyte and buffer to select the pH of measurement. For example, the redox-active molecule can be dissolved in 10 μM-10 mM concentrations in distilled, deionized water (DDW). The supporting electrolyte can be a salt such as NaCl or KCl at 0.01-0.5 M concentrations, for example, dissolved in DDW. The buffer can be 10 mM ammonium acetate/3-(N-morpholino)propanesulfonic acid at pH 7, or phosphate-buffered saline (PBS) at pH 7.4, or sodium acetate buffer at pH 5, or di-sodium hydrogen phosphate/potassium dihydrogen phosphate at pH 9, or boric acid/citric acid/trisodium phosphate for a wide range of pH values, for example.
Voltammetric methods are then used to characterize the electrochemical behavior of the redox-active molecule in such solution, with a potentiostat such as a Gamry PC4-300, using a three-electrode setup with working electrode (glassy carbon, or platinum, or gold), counter electrode (platinum wire) and reference electrode (Ag/AgCl (3M KCl), or SCE, or NHE; values are reported relative to Ag/AgCl (3M KCl) which has potential +197 mV vs. NHE at 298K).
For example, cyclic voltammetry may be used. In a cyclic voltammetry experiment phenazines will show a peak on the cathodic sweep (denoted Epc) corresponding to the reduction of the redox molecule.
The reverse, anodic sweep will show a peak (denoted Epa) corresponding to the re-oxidation of the redox molecule. If the electrode reaction is diffusion-controlled and reversible, the cathodic and anodic peak currents will be equal in area, and the mid-point between these peaks may be taken as the formal reduction potential of the redox molecule under the experimental conditions used. This value can interchangeably be referred to as the “midpoint potential” or “mid-peak potential”, denoted E1/2.
PYO was purified from aerobic bacterial cultures and was dissolved in 0.1 M KCl aqueous solution buffered with 10 mM ammonium acetate-3-(N-morpholino)propanesulfonic acid (5 mM each, pH 7) to yield a stock solution concentration of 829 μM PYO. Electrochemical measurements were performed with a Gamry PC4-300 potentiostat. A stationary gold disk electrode (BASi) was used as the working electrode, an Ag/AgCl electrode (RE-51, BASi) as the reference, and a straight platinum wire (BASi) was the counter electrode. Scans were performed between 20 and 500 mV/s in the potential range of around E1/2 (+/−300 mV), at 298 K.
As described in en.wikipedia.org/wiki/Nernst_equation, the Nernst equation relates E1/2 measured at pH 7 to the E1/2 at a different pH by:
[formula] • where E1/2 is in V • h is the number of protons transferred in the electrochemical reaction • e is the number of electrons transferred in the electrochemical reaction

Row | Compound | E1/2 (vs. Ag/AgCl (3M KCl))/mV [mV]
1 | O=C1c2ccc(S(=O)(=O)O)cc2C(=O)C2C=CC(S(=O)(=O)O)=CC12 (centres unmarked) | −381
2 | NC1=C(C(=O)O)C(=O)c2ccccc2C1=O [drawing 45] | −250
3 | C[n+]1c2ccccc2nc2c(C(=O)O)cccc21 | 0
4 | O=C(O)c1cccc2nc3c(C(=O)O)cccc3nc12 | 0

Test system: PA14
Experiment: Reduction of redox-active compound by PA14 (Table 4)
Type: cell-based, P. aeruginosa
Settings: not given
From the text: (§1) Phenazines and other redox active compound in the sense of the disclosure can be further characterized by various electrical properties such as a standard electrode potential E° vs. NHE of −500 mV to 500 mV and other properties such as number of redox cycle over a certain period of time (e.g. number of days) as ability to support survival and susceptibility to reduction by enzymes and/or bacterial strains.

Row | Compound | Reduction by PA14?
5 | C[n+]1ccc(-c2cc[n+](C)cc2)cc1 [Paraquat] | No
6 | CN(C)c1ccc2nc3ccc(=[N+](C)C)cc-3sc2c1 [Methylene blue (MB), Methylene blue] | Yes

Test system: not listed separately
Experiment: Standard electrode potential E0' vs NHE of exemplary redox-active compounds (Table 4)
Type: physicochemical
Settings: measured in aqueous solution at pH 7 in this study (footnote b)
From the text: as §1

Row | Compound | E0' (vs. NHE) (mV)
7 | CN(C)c1ccc2nc3ccc(=[N+](C)C)cc-3sc2c1 [Methylene blue (MB), Methylene blue] | 0 mV
8 | O=C(O)Cc1cc(O)ccc1O [Homogentisic acid (HMA), Homogentisic acid] | +306^b mV

Test system: PA14
Experiment: Redox cycles over 7 days and support of survival (Table 4)
Type: cell-based, P. aeruginosa
Settings: not given
From the text: as §1

Row | Compound | Support survival?
9 | C[n+]1ccc(-c2cc[n+](C)cc2)cc1 [Paraquat] | No
10 | CN(C)c1ccc2nc3ccc(=[N+](C)C)cc-3sc2c1 [Methylene blue (MB), Methylene blue] | No
11 | O=C(O)Cc1cc(O)ccc1O [Homogentisic acid (HMA), Homogentisic acid] | No

Same assay, conditions: over 7 days

Row | Compound | # of Redox cycles over 7 days
12 | C[n+]1ccc(-c2cc[n+](C)cc2)cc1 [Paraquat] | No cycle
13 | CN(C)c1ccc2nc3ccc(=[N+](C)C)cc-3sc2c1 [Methylene blue (MB), Methylene blue] | 3
14 | O=C(O)Cc1cc(O)ccc1O [Homogentisic acid (HMA), Homogentisic acid] | No cycle

Test system: not given
Experiment: not given
Settings: oxidized form; literature values (footnotes a, c, d); cited from earlier work

Row | Compound | E0' (vs. NHE) (mV)
15 | C[n+]1ccc(-c2cc[n+](C)cc2)cc1 [Paraquat] | −446^c mV
16 | CN(C)c1ccc2nc3ccc(=[N+](C)C)cc-3sc2c1 [Methylene blue (MB), Methylene blue] | +11 mV

Test system: P. aeruginosa PA14 biofilms
Experiment: Anoxic survival (CFU) of electrode-attached wild type biofilms at poised potential with sub-MIC antibiotics
Type: cell-based, P. aeruginosa UCBPP-PA14
Settings: +100 mV; 10 μg/mL colistin vs no antibiotic
Experimental: (§2) Electrochemical reactors and biofilm growth. Double-jacketed electrochemical reactors (Pine Instruments, 250 ml, wide center port 29/26) were used with ITO-coated 0.2 mm thick boro-aluminosilicate glass slides (Delta Technologies, 24×60 mm, Rs=7-10Ω) as working electrodes, freshly sanded graphite rods (Alfa Aesar) as counter electrodes, and Ag/AgCl in 3M KCl reference electrodes (BASi). Silver epoxy (Electron Microscopy Sciences) was used to make electrical connection between insulated wire ([…]) and working electrode and was insulated using 5 Minute® expoxy (Devcon). Working electrodes were assembled within 5 hours of use. Reactors were sterilized by autoclaving without reference or working electrodes, which were sterilized by submerging in 10% bleach for 5 minutes or 30 seconds, respectively, and rinsed in sterile water. Individual mid-log liquid cultures (OD600 0.45-0.55) were used to inoculate sterile reactors containing 140 ml of MM (described above) with 0.1% (vol/vol) for each biological replicate. Antibiotics were not added at this point. Working electrodes were poised at either open circuit, +100 mV, or −400 mV vs. Ag/AgCl (+310 mV and −190 mV vs the standard hydrogen electrode, respectively). Reactors were aerated using an aquarium pump with a 0.2 μm filter (Thermo Scientific) and heated to 31° C. using a circulating water bath (Haake A 25, Thermo Scientific). Fresh medium was exchanged every 24 hours for 5 days. After 5 days of aerobic growth, working electrode-attached biofilms were rinsed in sterile medium to remove planktonic cells and transferred to sterile reactors with fresh MM previously flushed for 2 hours with N2 ultra-high purity gas (NRL supply store). For antibiotic exposure experiments, antibiotics were added to sterile media before flushing with N2. For PYO-addition experiments, 10 μM PYO (Cayman Chemical) was added to in the MM before flushing with N2. Working electrodes were poised to their corresponding potential and biofilms were incubated for an additional 72 hours under N2 flushing at 31° C.
Biofilm harvesting and processing. After 72 hours of incubation under anoxic conditions, electrode-attached biofilms were rinsed in sterile media. The biofilms within the bottom 3.12 cm^2 of each working electrode were scraped off using a cell scraper (Sarstedt) and resuspended in antibiotic-free MM. Serial dilutions were prepared in sterile antibiotic-free MM and plated on antibiotic-free LB. The rest of the electrode-attached biofilms were incubated at room temperature in freshly-made 2 μM TOTO-1 and 10 μM SYTO-60 (Invitrogen) in MM for 15 minutes and rinsed 2× in sterile MM for 15 minutes. Imaging was done with an upright Zeiss LSM 800 microscope with Airyscan and a 40× oil immersion lens. SYTO-60 was excited with a 561 nm; 0.20% laser and emission was recorded from 580-700 nm. TOTO-1 was excited with a 488 nm; 0.20% laser and emission was recorded from 490 to 580 nm.
In order to test the effect of antibiotic in combination with application of a difference in voltage to P. aenuginosa, sub-MICs of gentamicin, meropenem, ciprofloxacin, and colistin were added to anoxic survival reactors set up as described in Examples 1 and 2.

Row | Compound | decrease in CFUs under PYO-oxidative conditions compared with nontreated biofilms [×]
17 | colistin | 10

Same assay, conditions: wild type biofilms, 72 h anoxic, −400 mV vs Ag/AgCl, n=3; 4 μg/mL gentamicin, 1 μg/mL meropenem, 4 μg/mL ciprofloxacin

Row | Compound | CFU/cm^2 ± SE, −400 mV (PYO-reductive conditions) [CFU/cm^2]
18 | gentamicin | 21.4±10.7

Same assay, conditions: −400 mV vs Ag/AgCl, anoxic, sub-MIC antibiotic

Row | Compound | effect on wild type biofilms under PYO-reductive conditions (in words)
19 | colistin | did not show an additive effect
20 | gentamicin | almost fully eradicated WT biofilms; also recorded: almost completely eradicated wild type biofilms

Same assay, conditions: −400 mV vs OC; 1 μg/mL meropenem or 4 μg/mL ciprofloxacin

Row | Compound | decrease in cell survival under PYO-reductive conditions compared with OC [×]
21 | O=C(O)c1cn(C2CC2)c2cc(N3CCNCC3)c(F)cc2c1=O [ciprofloxacin] | ~100
22 | C[C@@H](O)[C@H]1C(=O)N2C(C(=O)O)=C(S[C@@H]3CN[C@H](C(=O)N(C)C)C3)[C@H](C)[C@H]12 [meropenem] | ~100

Test system: Δphz* biofilms
Experiment: Anoxic survival (CFU) of electrode-attached phenazine-deficient biofilms at poised potential
Type: cell-based, P. aeruginosa UCBPP-PA14; Δphz*
Settings: 4 μg/mL gentamicin, −400 mV, absence of phenazines
Experimental: as §2, with “For PYO-addition experiments, 10 μM PYO (Cayman Chemical) was added to in the MM before flushing with N2. Working electrodes were poised to their corresponding potential and biofilms were incubated for an additional 72 hours under N2 flushing at 31° C.” left out
Biofilm harvesting and processing. […] SYTO-60 was excited with a 561 nm; 0.20% laser and emission was recorded from 580-700 nm. TOTO-1 was excited with a 488 nm; 0.20% laser and emission was recorded from 490 to 580 nm.

Row | Compound | effect on Δphz* biofilms under PYO-reductive conditions (in words)
23 | gentamicin | did not affect Δphz* biofilms; also recorded: had no effect on the survival of Δphz* biofilms

Reference: patent US20250058002A1, “ELECTROCHEMICAL INHIBITION OF REDOX ACTIVE BACTERIA AND RELATED DEVICES, METHODS AND SYSTEMS” (priority 2023, published 2025)
